Assay results from PMC8191290, “Substrate specificities and reaction kinetics of the yeast oligosaccharyltransferase isoforms” (The Journal of Biological Chemistry, 2021).
Read-outs that look alike come from different tables or passages of the source.

How the values were obtained:
OST3 complex [1] = target: T1, OST3 complex (Saccharomyces cerevisiae, UniProt P39007); assay: Turnover of synthetic TAMRA-labeled peptides; type: biochemical; conditions: for Turnover after 5 min / Glycopeptide detected / Relative turnover: 0.5 µM OST3 complex, 20 µM peptide; for Turnover after 5 min / Relative turnover: 150 µM LLO C20; for Glycopeptide detected: 150 µM LLO C20, 5 min; for Relative turnover: TAMRA-DANYTK turnover defined as 100 %, 5 min
T1 construct: were purified separately from strains expressing only one type of complex; made in house; host or cells: Saccharomyces cerevisiae, BY4742-derived strain ost6::LEU2MX6 OST4-1D4::kanMX6 YEp352-OST3
Protocol: (§1) TAMRA-labeled peptides with 5-TAMRA at the N-terminus and an amide group at the C-terminus were synthesized by WatsonBio Sciences. Unlabeled peptides (Table S1) were synthesized by Genscript Corp. and were designed so that the asparagine of the glycosylation sequon was in the middle (except for Peptide 8). Lyophilized peptides were dissolved in dimethyl sulfoxide (DMSO), unless specified otherwise, to a 3 mM stock solution and further diluted in ddH2O for reactions.
(§2) Reactions were performed in a total volume of 10 μl containing the specified amount of TAMRA-labeled peptide, synthetic LLO analog, 10 mM MnCl2, and purified OST after size-exclusion chromatography in purification buffer (50 mM Hepes, pH 7.5, 150 mM NaCl, 1 mM MgCl2, 1 mM MnCl2, 10% (v/v) glycerol, 0.03% (w/v) DDM, and 0.006% (w/v) CHS). The concentration of OST was calculated using the molecular weight of 280 kDa. The reaction mixture was preincubated at 30 °C for 5 min before adding the peptide to start the reaction that proceeded at 30 °C. Time points were taken such that the reaction was in the linear phase. At each time point, 1 μl reaction mixture was taken and the reaction was stopped by dilution in stop solution (0.1% FA in 10% ACN, 10 mM KPO4 pH 8.0) such that the final peptide concentration was 2 μM.
Samples were analyzed by reverse-phase chromatography using a UPLC Dionex UltiMate 3000 with an Accucore 150-C18 100 × 2.1 mm 2.6 μm column (Thermo Fisher Scientific). One microliter sample (2 pmol of peptide) was injected and measured by isocratic elution using a certain proportion of ACN (15% ACN for peptide TAMRA-DANYTK; 20% ACN for peptide TAMRA-YANATS) in 10 mM KPO4, pH 8.0 buffer so that the glycopeptide and peptide are fully separated and elute within 3 min at a constant flow rate of 0.7 ml/min, with a column temperature of 45 °C. The peptide and glycopeptide were detected through TAMRA fluorescence (excitation wavelength: 546 nm; emission wavelength: 579 nm).
The UPLC profiles were analyzed by integrating the peaks corresponding to the glycopeptide and peptide using Chromeleon 7 (Dionex) and calculating the amount of glycopeptide formed using the following equation, as previously described ([43]): [GP]=PeakareaGP/PeakareaP+PeakareaGP×[P] […]
Supp. Table 2. Turnover of synthetic TAMRA-labeled peptides
Peptide Glycopeptide Turnover after 5 min Relative turnover […]
TAMRA, tetramethylrhodamine
Turnover of TAMRA-labeled peptides after 5 min was determined using 0.5 µM OST3 complex, 20 µM indicated peptide and 150 µM LLO C20. Relative turnover compared to TAMRA-DANYTK is given by defining TAMRA-DANYTK turnover as 100 %.

OST3 complex [2] = target: T1, OST3 complex; assay: In vitro glycosylation assay, kinetic parameters for acceptor peptides, OST3 complex; type: biochemical; conditions: for Km: 10 mM MnCl2, pH 7.5, 30 °C, UPLC TAMRA fluorescence, read-out: KM (apparent); for Km / kcat (apparent): n = 3; for kcat (apparent): 30 °C
Protocol: Figure 2 In vitro glycosylation assay for OST activity and peptide sequence preferences.A, schematic representation of the in vitro reaction setup for yeast OST activity. The peptide substrate containing the glycosylation sequon N-X-(S/T) is labeled with the TAMRA fluorophore at the N-terminus. Incubation with OST, synthetic LLO, and a divalent metal ion (Mn^2+preferred) results in the transfer of the sugar moiety (two GlcNAcs, blue squares) from the LLO to the fluorescently labeled peptide, yielding a glycopeptide product. B, measurement and analysis of the in vitro assay shown in A. Fluorescently labeled peptide (P) substrate and glycopeptide (GP) product are separated by reverse-phase chromatography using UPLC. The glycopeptide elutes earlier than the peptide and amounts of glycopeptide are quantified at different reaction time points by peak integration. C, quantification of kinetic parameters for synthetic peptide TAMRA-DANYTK. Reactions were performed with 2.8 μg purified extract containing OST3 complex before size-exclusion chromatography (approximately 1 μM OST3 complex), 150 μM LLO C20, and varying concentrations of the peptide. Glycopeptide product was measured by UPLC and turnover rates were determined by linear regression of the initial phase of the reaction and taking into account the enzyme concentration. The mean of three reactions is shown and the data were fitted by nonlinear regression according to the Michaelis–Menten formula (R^2 = 0.9803) using Prism. Error bars indicate standard deviations from the mean (n = 3). D, screening glycosylatable peptides derived from highly glycosylated yeast sequences. Reactions were performed with 0.4 μM purified OST3 complex, 150 μM LLO C20, 25 μM TAMRA-DANYTK, and 25 μM unlabeled competitor peptide. TAMRA-DANYTK glycopeptide product formed after 30 min was measured by UPLC and % inhibition was determined relative to a control reaction containing no unlabeled competitor peptide. E, quantification of kinetic parameters for synthetic peptide TAMRA-YANATS. Reactions were performed with 0.1 μM purified OST3 complex, 100 μM LLO C20, and varying concentrations of the peptide. Turnover rates were determined as in C. The mean of three reactions is shown and the data were fitted by nonlinear regression according to the Michaelis–Menten formula (R^2 = 0.9794) using Prism. Error bars indicate standard deviations from the mean (n = 3). P, phosphate; TAMRA, tetramethylrhodamine.
as §1, §2
Samples were analyzed by reverse-phase chromatography using a UPLC Dionex UltiMate 3000 with an Accucore 150-C18 100 × 2.1 mm 2.6 μm column (Thermo Fisher Scientific). […]

[3] = 0.1 μM purified OST3 complex, 100 μM LLO C20, 10–500 μM peptide

Substance	Turnover after 5 min (OST3 complex [1]) [%]	Glycopeptide detected (OST3 complex [1])	times faster glycosylation than TAMRA-DANYTK (OST3 complex [1]; OST3 complex, initial turnover, relative to TAMRA-DANYTK) [times]	Relative turnover (OST3 complex [1]) [%]	kcat/KM (OST3 complex [2]; 0.1 μM purified OST3 complex, 100 μM LLO C20) [min^-1 μM^−s1]	Km (OST3 complex [2]; [3]) [µM]	kcat (apparent) (OST3 complex [2]; [3]) [s⁻¹]	specificity relative to TAMRA-DANYTK (OST3 complex [2]; OST3 complex)	fold lower apparent KM (OST3 complex [2]; OST3 complex, relative to TAMRA-DANYTK) [fold]	kcat/KM (OST3 complex [2]; 2.8 μg purified extract (approx. 1 μM OST3 complex), 150 μM LLO C20) [min^-1 μM^−s1]	Km (OST3 complex [2]; 2.8 μg purified extract (approx. 1 μM OST3 complex, before SEC), 150 μM LLO C20, 10–400 μM peptide, saturation not reached, listed as TAMRA-DANYTK-NH2) [µM]	Km (OST3 complex [2]; 2.8 μg purified extract (approx. 1 μM OST3 complex, before SEC), 150 μM LLO C20, 10–400 μM peptide, saturation not reached) [µM]	kcat (apparent) (OST3 complex [2]; 2.8 μg purified extract (approx. 1 μM OST3 complex, before SEC), 150 μM LLO C20, 10–400 μM peptide) [s⁻¹]
TAMRA-YANATS [shorter version of Peptide 5 of only six amino acid residues (TAMRA-YANATS)]	84	Yes	14	1400	0.26	55.6 ± 6.5	0.242 ± 0.012	over ten times more specific	3.5				
TAMRA-DANYTK-NH2 [fluorescently labeled hexapeptide TAMRA-DANYTK-NH2 as the acceptor peptide, reference compound]	6	Yes		100						0.02	~200	201 ± 51.3	0.065 ± 0.01
